Holding throughout (test): NCI tumour cell line growth inhibition, 48 h
Experiment [1] deals with M14 melanoma.
In experiment [2] the test system is UACC-62 melanoma.
For experiment [3], the system named is SN12C renal.
The test system of experiment [4] is TK-10 renal.
Experiment [5] concerns UO-31 renal.
Experiment [6] deals with K-562 leukemia.
For experiment [7], the system named is MOLT-4 leukemia.
In experiment [8] the test system is NCI/ADR-RES ovarian.
In experiment [9] the test system is T-47D breast.
For experiment [10], the system named is MCF7 breast.

SMILES strings stand for the structures.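 Exposure lasted 48 hours, with cells grown in 96-well plates and compounds tested at five concentrations. Here, GI50 denotes the concentration required for 50% inhibition of growth. Definition used: TGI = concentration required for complete inhibition of growth.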

On to `O=C(COC(=O)c1cccc2c(=O)c3ccccc3[nH]c12)Nc1ccc(S(=O)(=O)Nc2ncccn2)cc1`, for which the TGI is above 100 µM in experiment [1]; 39.7 µM in experiment [2]; above 100 µM in [3]; above 100 µM in experiment [4]; above 100 µM in experiment [5]; 90.7 µM in experiment [6]. In addition, in experiment [7], the TGI came out at 71 µM.

Take `COc1ccc(/C=C2\CCc3ccccc3C2=O)cc1OC`: the TGI in [1] is 50 µM; in experiment [2] it was 34.1 µM; in [3] it was 95.7 µM; in experiment [4], above 100 µM; in experiment [5] it was above 100 µM; in [6] it was above 100 µM. The compound further registered a TGI in [7] of 71.3 µM.

As to `CC(=O)OC1(C#N)CC2OC1C1N=NN(C(=O)OC(C)(C)C)C21` (stereo not drawn), the TGI in experiment [1] was 51.2 µM; in experiment [2], 42.2 µM; in experiment [3], above 100 µM; in [4] it was above 100 µM; in experiment [5], above 100 µM; in experiment [6] it was above 100 µM. In experiment [7], this compound registered a TGI above 100 µM.

For the compound `C[C@@]1(O)CCC[C@H]1n1c(=O)c(C(F)F)cc2cnc(NC3CCN(S(C)(=O)=O)CC3)nc21`, the GI50 in experiment [1] is 1.75 µM; in experiment [2] it was 1.04 µM; in experiment [3], 2.66 µM; in [8] it was 12.7 µM; in experiment [4], 1.21 µM; in experiment [5] it was 1.2 µM. The GI50 in experiment [6] was 1.96 µM; in experiment [9], 1.29 µM. In addition, the TGI in experiment [1] is 7.62 µM; in experiment [2], 3.31 µM; in experiment [3] it was above 100 µM; in [8] it was above 100 µM; in [4], above 100 µM; in experiment [5] it was 3.97 µM. Further, the TGI in experiment [6] and in experiment [9] was above 100 µM throughout.

Take `COC(=O)c1ccc(/C=C/S(=O)(=O)c2ccccc2)cc1`: the TGI in experiment [1], in experiment [2], in experiment [3], in experiment [4], in experiment [5] and in [6] was above 100 µM in each case. The compound further showed a TGI in experiment [7] above 100 µM.

Consider `COC(=O)C1=C(O)c2cc3c(cc2[C@H](c2cc(OC)c(OC)c(OC)c2)C1)OCO3`, for which the TGI in experiment [1] is above 100 µM; in experiment [2], 27.9 µM; in experiment [3], above 100 µM; in experiment [4], above 100 µM; in experiment [5] it was 36.3 µM; in [6], above 100 µM. The compound further showed a TGI in experiment [7] of 89.6 µM.

For `CCOc1ccc(N=Cc2ccc3ccccc3n2)cc1`, the TGI in experiment [1], in experiment [2], in experiment [3], in experiment [4], in experiment [5] and in [6] was above 100 µM each time. In addition, the TGI in experiment [7] is above 100 µM.

Take `Cc1ccc(-c2cc(=O)c3cc(C)c(C)c(C(=O)O)c3o2)cc1[N+](=O)[O-]`: the TGI in experiment [1], in experiment [2], in experiment [3], in experiment [4], in experiment [5] and in experiment [6] was above 100 µM each time. This compound also yielded a TGI in [7] above 100 µM.

`COc1ccc2c(c1OC)C(C=C(c1ccccc1)c1ccccc1)CN(C)C2` (stereo not drawn): the TGI in experiment [1] is 31.3 µM; in experiment [2], 40.2 µM; in experiment [3] it was above 100 µM; in experiment [4], 76.1 µM; in experiment [5] it was above 100 µM; in [6], 25.1 µM. In experiment [7], the TGI was 64.7 µM.

As to `Fc1ccc2c(c1)cc1ccc3cccc4ccc2c1c34`, the TGI in experiment [1], in [2], in experiment [3], in experiment [4], in [5] and in experiment [6] was above 100 µM throughout. The TGI in experiment [7] was above 100 µM.

In the case of `CC(=O)Oc1cc(Cl)c(OC(C)=O)c2c(OC(C)=O)c(C)c(O[Si](C)(C)C(C)(C)C)cc12`, the TGI was 19.6 µM in [1]; 23.1 µM in [3]; 17.6 µM in [4]; 26.3 µM in experiment [5]; 18.2 µM in [6]; 24.8 µM in experiment [7].

On to `CC(CCC(=O)O)c1ccc(Br)cc1` (stereo not drawn), for which the TGI in experiment [1], in experiment [2], in [3], in experiment [4], in [5] and in experiment [6] was above 100 µM each time. Further, the TGI in [7] was above 100 µM.

Consider `C/C(=N\NS(=O)(=O)c1c(C)cc(C)cc1C)c1ccc[n+]([O-])n1`, for which the TGI is 20.7 µM in [1]; 31.5 µM in experiment [2]; 29.2 µM in experiment [3]; 52.8 µM in experiment [5]; 30.2 µM in [6]; 37 µM in experiment [7].

Take `COc1c(N2CCN(CN3C(=O)C(=O)c4ccccc43)C(C)C2)c(F)cc2c(=O)c(C(=O)O)cn(C3CC3)c12` (stereo not drawn): the GI50 was above 100 µM in experiment [1]; 47.5 µM in experiment [2]; 47.3 µM in experiment [3]; above 100 µM in [8]; 33.8 µM in experiment [10]; 6.85 µM in experiment [4]. Also, the values for the GI50 in experiment [5], in experiment [6] and in experiment [7] were above 100 µM, 47 µM and 36.8 µM, respectively. Besides, the TGI was above 100 µM in [1]; above 100 µM in [2]; above 100 µM in [3]; above 100 µM in experiment [8]; above 100 µM in [10]; 68.7 µM in experiment [4]. In addition, the TGI in [5], in [6] and in [7] was above 100 µM throughout.

Take `[N-]=[N+]=NC1C2CC3CC(C2)CC1C3` (stereo not drawn): the TGI in [1], in [2], in experiment [3], in experiment [4], in [5] and in experiment [6] was above 100 µM each time. Also, the TGI in experiment [7] was above 100 µM.

The record behind these values is PubChem BioAssay (NCI).
